Several values for one entry are separate records, joined by “and”; a condition that tells them apart may be missing. Identical values can stand only once.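 Grown in 96-well plates, cells were treated for 48 hours with each compound at five concentrations. Insufficient inhibition: endpoint recorded as highest concentration tested. GI50 is the concentration that inhibits growth by half. At the TGI there is no net growth.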
Key:
Assay in all cases: inhibition of tumour cell growth, NCI panel, 48 h
NCI-H460 lung = tested on: NCI-H460 lung
SN12C renal = tested on: SN12C renal
COLO 205 colon = tested on: COLO 205 colon
K-562 leukemia = tested on: K-562 leukemia
SK-OV-3 ovarian = tested on: SK-OV-3 ovarian
EKVX NSCLC = tested on: EKVX NSCLC
NCI-H226 lung = tested on: NCI-H226 lung
RPMI-8226 leukemia = tested on: RPMI-8226 leukemia
UO-31 renal = tested on: UO-31 renal
OVCAR-3 ovarian = tested on: OVCAR-3 ovarian

SMILES	GI50 (NCI-H460 lung)	TGI (NCI-H460 lung)	GI50 (SN12C renal)	TGI (SN12C renal)	GI50 (COLO 205 colon)	TGI (COLO 205 colon)	GI50 (K-562 leukemia)	TGI (K-562 leukemia)	GI50 (SK-OV-3 ovarian)	TGI (SK-OV-3 ovarian)	GI50 (EKVX NSCLC)	TGI (EKVX NSCLC)	GI50 (NCI-H226 lung)	TGI (NCI-H226 lung)	GI50 (RPMI-8226 leukemia)	TGI (RPMI-8226 leukemia)	GI50 (UO-31 renal)	TGI (UO-31 renal)	GI50 (OVCAR-3 ovarian)	TGI (OVCAR-3 ovarian)
CN[C@@H](C)C(=O)N[C@H](C(=O)N1CCC[C@H]1C(=O)N[C@H]1c2ccccc2C[C@H]1OCC#CC#CCO[C@@H]1Cc2ccccc2[C@@H]1NC(=O)[C@@H]1CCCN1C(=O)[C@@H](NC(=O)[C@H](C)NC)C1CCCCC1)C1CCCCC1	2.66 µM	6.77 µM	7.95 µM	21.6 µM	1.78 µM	3.55 µM	2 µM	4.66 µM	< 0.01 µM	< 0.01 µM	6.86 µM	20.6 µM	19.6 µM	41.5 µM	1.44 µM	3.9 µM	> 44.2 µM	> 59.3 µM	2.63 µM	11.9 µM
CC(=O)N[C@H]1C=C[C@@H]2/C=C(C)/C=C/[C@@H](C)[C@H]([C@H](C)[C@H](O)[C@@H](C)NC(C)=O)OC(=O)/C=C/C=C(C)\C=C\[C@]2(C)C1	0.0045 µM	> 45 µM	0.0212 µM and 0.00535 µM	4.65 µM and > 45 µM	0.0173 µM and 0.0045 µM	4.65 µM and 5.38 µM	0.0307 µM and 0.00538 µM	4.65 µM and > 45 µM	0.0117 µM and 0.0045 µM	4.65 µM and > 45 µM		4.65 µM and > 45 µM	0.0157 µM and 0.0045 µM	4.65 µM and 7.18 µM	0.0428 µM and 0.0045 µM	4.65 µM and 13.1 µM	0.00414 µM and 0.0045 µM	4.65 µM and 10.6 µM	0.0045 µM	18 µM
ClCc1cccc(Cn2cnc3c(NC45CC6CC(CC(C6)C4)C5)ncnc32)c1	16 µM	43 µM	21.2 µM	50.9 µM	20.5 µM	> 69.4 µM	1.89 µM	29.4 µM	21.1 µM	42.3 µM	18.6 µM	40.7 µM	22.9 µM	69.2 µM	10.8 µM	> 53.2 µM	14.5 µM	31.4 µM	17.6 µM	35.9 µM
CCCCc1c2c(nc3c1CCC/C3=C\c1ccccc1)C(=O)CCC2		> 100 µM		47.4 µM		48.6 µM		85.2 µM		67.2 µM		68.4 µM		45.3 µM		45.4 µM		61.8 µM		33.4 µM
CC(=O)OCC1OC(N2C(=O)C(=O)c3cc(C)ccc32)C(OC(C)=O)C(OC(C)=O)C1OC(C)=O (stereo not given)		> 100 µM		> 100 µM		> 100 µM		> 100 µM		> 100 µM		> 100 µM		> 100 µM		70.1 µM		> 100 µM		> 100 µM
COc1ccc(N2C(=O)CC(Cl)C2=O)cc1 (stereo not given)		> 100 µM		32.7 µM		30 µM		17.5 µM		> 100 µM		> 100 µM		46.4 µM		37.2 µM		33 µM		28.7 µM
Cc1cc(Cl)ccc1NC(=O)CCCC(=O)C1CCCC1=O (stereo not given)		> 100 µM		> 100 µM		> 100 µM		> 100 µM		> 100 µM		> 100 µM		> 100 µM		> 100 µM		> 100 µM		> 100 µM
CC1=C2[C@@H](CC1)[C@]1(C)O[C@@](C3CCCCC3)(C[C@H]1OC(=O)CO)[C@H]2OC(=O)/C=C/c1ccccc1	6.35 µM	17.8 µM	0.318 µM	15.1 µM	8.06 µM	24.3 µM	7.14 µM	32.1 µM	9.71 µM	24.5 µM	5.83 µM	19.5 µM	7.58 µM	23.5 µM	9.51 µM	33.2 µM	0.359 µM	14.9 µM	6.92 µM	18.7 µM
COc1cc(Nc2nccc(Nc3ccc4c(C)[nH]nc4c3)n2)cc(OC)c1OC	1.29 µM	5.3 µM	2.12 µM	20.8 µM	2.02 µM	5.65 µM	1.4 µM	> 25 µM	1.53 µM	6.64 µM	1.87 µM	9.19 µM	1.01 µM	7.1 µM	5.21 µM	13.2 µM	0.842 µM	5.19 µM	2.5 µM	7.54 µM
CC(=O)c1c(C)[nH]c(-c2nc3ccc(N4CCN(C)CC4)cc3[nH]2)c1-c1ccc(OCC2CCOCC2)cc1	2.39 µM	19.4 µM	1.31 µM	17.4 µM	0.334 µM	4.65 µM	0.37 µM	9.08 µM	0.377 µM	11.1 µM	8.36 µM	37.2 µM	1.87 µM	21.2 µM	0.251 µM	1.42 µM	0.207 µM	6.81 µM	0.889 µM	14 µM
CCN(CC)CCCC(C)Nc1c2ccc(Cl)cc2nc2ccc(OC)cc12 (stereo not given)	1.3 µM	3.21 µM and 2.4 µM	1.59 µM	7.16 µM and 9.28 µM		3.11 µM and 7.34 µM		4.16 µM	2.69 µM	10.3 µM and 12.6 µM	2.09 µM	7.29 µM and 13.3 µM		10.7 µM		5.74 µM and 5.11 µM	1.52 µM	3.12 µM and 5.49 µM		6.89 µM and 9.8 µM
CCOC(=O)C(N)C[S][Sn]([CH3])([CH3])[Cl] (stereo not given)	> 100 µM	> 100 µM	> 100 µM	> 100 µM	> 100 µM	> 100 µM	39.6 µM	> 100 µM	> 100 µM	> 100 µM	> 100 µM	> 100 µM	> 100 µM	> 100 µM	> 84.9 µM	> 100 µM	> 100 µM	> 100 µM	> 100 µM	> 100 µM
CCN(CC)CC(O)CNc1ccc(NCC2CO2)c2c1C(=O)c1ccccc1C2=O (stereo not given)	0.39 µM	3.16 µM	0.177 µM	0.899 µM	0.581 µM	4.38 µM	0.0135 µM			9.64 µM		4.72 µM	0.958 µM	3.21 µM		5.35 µM	0.391 µM	3.35 µM	0.299 µM	2.69 µM
CC(=O)Nc1ccc(C(=O)NN2C(=O)C(Cl)C2c2ccc(Cl)cc2)cc1 (stereo not given)		> 100 µM		> 100 µM		> 100 µM		> 100 µM		71.9 µM		> 100 µM		> 92.1 µM		> 100 µM		> 100 µM		52.3 µM
COc1cc(OC)cc(C2CC(=O)Nc3c2c(C)nn3-c2nc3ccccc3[nH]2)c1 (stereo not given)	2.58 µM	6.1 µM	3.46 µM	> 100 µM	2.7 µM	6.55 µM	3.15 µM	> 100 µM	2.41 µM	5.49 µM	3.31 µM	> 100 µM	2.52 µM	6.38 µM	2.64 µM	6.29 µM	3.22 µM	11.4 µM	2.3 µM	5.02 µM
CC[C@@H]1OC2(C)CC(S(=O)(=O)c3ccccc3O)CC1O2 (stereo not given in full)		> 100 µM		> 100 µM		> 100 µM		> 100 µM		> 100 µM		> 100 µM		> 100 µM		> 100 µM		> 100 µM		> 100 µM
CCN1CCN(C(=O)[C@]23CC[C@@H](C)[C@H](C)[C@@H]2C2=CC[C@@H]4[C@@]5(C)C/C(=C/c6ccncc6)C(=O)C(C)(C)[C@@H]5CC[C@@]4(C)[C@]2(C)CC3)CC1	1.7 µM	3.25 µM	1.63 µM	2.99 µM	2.11 µM	5.62 µM	2.47 µM	7.25 µM	1.83 µM	3.67 µM	1.47 µM	3.41 µM	1.75 µM	3.64 µM	1.88 µM	5.91 µM	1.37 µM	2.65 µM	1.56 µM	2.94 µM
C=CC1(C(=O)O)CCC(C(C)(C)C)CC1 (stereo not given)		> 100 µM		> 100 µM		> 100 µM		> 100 µM		> 100 µM		> 100 µM		> 100 µM		> 100 µM		> 100 µM		> 100 µM
CCOC(=O)c1cc(C#N)c(=O)n(/N=C(\C)c2ccncc2)c1O	> 100 µM	> 100 µM	> 100 µM	> 100 µM	> 100 µM	> 100 µM	> 100 µM	> 100 µM	> 100 µM	> 100 µM	> 100 µM	> 100 µM	> 100 µM	> 100 µM	> 100 µM	> 100 µM	> 100 µM	> 100 µM	> 100 µM	> 100 µM
C=C1C(=O)O[C@H]2[C@H]1CC/C(CNC(=O)c1cc3cc(OC)ccc3[nH]1)=C\CC[C@@]1(C)O[C@@H]21	5.51 µM	20 µM	1.7 µM	4.87 µM	1.21 µM	3.04 µM	2.56 µM	7.99 µM	11.2 µM	23.5 µM	1.28 µM	3 µM	1.71 µM	4.6 µM	1.58 µM	4.39 µM	1.27 µM	2.64 µM	1.21 µM	2.57 µM
COc1cc(OC)c(/C=C/S(=O)(=O)Cc2cnc(OC)c(N)c2)c(OC)c1	< 0.02 µM	> 100 µM	< 0.0232 µM	> 100 µM	< 0.0169 µM	< 0.0322 µM	< 0.013 µM	> 100 µM	< 0.0211 µM	> 100 µM	0.223 µM	> 100 µM	> 40.1 µM	> 100 µM	< 0.0206 µM	> 100 µM	< 0.0251 µM	> 100 µM	0.0264 µM	> 100 µM
O=S(=O)(NC1=NCCN1C(=S)SN1CCn2c1nsc2=S)c1ccc(Br)cc1	38.9 µM	> 100 µM	31.6 µM	> 100 µM	28.7 µM	86.3 µM	24.6 µM	83.2 µM	37.8 µM	> 100 µM	2.39 µM	95.1 µM	40.2 µM	> 100 µM	1.86 µM	37.2 µM	61 µM	> 100 µM	23.8 µM	> 100 µM
CCNC(=O)CCN(C(=O)O)S(=O)(=O)c1ccc(NC(=O)c2ccccc2)cc1		> 100 µM		> 100 µM		> 100 µM		> 100 µM		> 100 µM		> 100 µM		> 100 µM		> 100 µM		> 100 µM		> 100 µM
Cc1cc(I)cc(CN(C)CCCN2CCSCC2)c1O	17.8 µM	40.2 µM	76.6 µM	> 100 µM	25.2 µM	55.3 µM	14.2 µM	32.6 µM	35.4 µM	> 100 µM	29.4 µM	> 100 µM	39.5 µM	> 100 µM	18.8 µM	44.4 µM	26.4 µM	> 100 µM	29.7 µM	> 100 µM
O=c1c2c(nc3n1CCS3)[nH]c1ccccc12	> 100 µM	> 100 µM	> 100 µM	> 100 µM	> 100 µM	> 100 µM	> 100 µM	> 100 µM	> 100 µM	> 100 µM	> 100 µM	> 100 µM	70.3 µM	> 100 µM	> 100 µM	> 100 µM	94.3 µM	> 100 µM	95.4 µM	> 100 µM
O=S(=O)(N/N=C/c1ccc(/C=N/NS(=O)(=O)c2ccccc2)cc1)c1ccccc1		> 100 µM		> 100 µM		43.1 µM		98.5 µM		> 100 µM		> 100 µM		> 100 µM		> 100 µM		> 100 µM		> 100 µM
O=C1Nc2ccc(C(=O)c3ccco3)cc2/C1=C/c1cc(Cl)c(O)c(Cl)c1	4.23 µM	> 22.8 µM	6.53 µM	> 25 µM	8.01 µM	> 25 µM	9.05 µM	> 25 µM	4.51 µM	16.1 µM	11 µM	> 25 µM	6.98 µM	> 24.1 µM	4.02 µM	12.5 µM	4.56 µM	11.5 µM	4.32 µM	10.6 µM

Reference: PubChem BioAssay (NCI)
